Data on 109 molecules can be found in a melting point compilation (Tetko et al.).

As usually defined, the melting point is the temperature of the solid-liquid transition.

Molecule `Oc1cc(Cl)cc(Cl)c1Cl` gave a melting point of 62 °C. Regarding `NC1CCC(CC2CCC(N)CC2)CC1` (centres undefined), the melting point was 64.7 °C.

In the case of `COC(=O)C12C=CC(CC1)C1C(=O)OC(=O)C12` (centres undefined), the melting point was 116 to 118 °C. As for `CC1C=C(CO)N=N1` (centres undefined), the figure is 79 °C. Take `CC12CCCC1C1CCC3CCCCC3(C)C1CC2` (centres undefined): the melting point turned out to be 50.2 °C. Then `c1ccc2c(c1)CC1(OCCO1)c1ccccc1CC21OCCO1`, with 143 to 144 °C; and `NS(=O)(=O)c1ccc(N2CCCCS2(=O)=O)cc1`, with 180 °C. For the molecule `NS(=O)(=O)c1c(Cl)cc(Cl)cc1Cl`, the melting point was 180 °C.

Molecule `CN(C)C(=S)Sc1ccc([N+](=O)[O-])cc1[N+](=O)[O-]` returned a melting point of 152 °C. Then `O=C(O)c1cccc(-c2nccs2)c1`, with 160 to 162 °C. As for `Nc1n[nH]c(N)c1Cc1ccccc1Cl`, the figure is 120 to 121 °C; as for `Nc1cc(N)c(/C=C/c2ccccc2)c([N+](=O)[O-])c1C=Cc1ccccc1`, 175 °C.

`COP(=O)(OC)SCn1c(=O)oc2cc(Cl)cnc21` came in with a melting point of 89 °C. As for `N#CC(C#N)=C(C(=O)Cc1ccccc1)c1ccc([N+](=O)[O-])cc1`, the figure is 332 to 334 °C; as for `O=C1CCc2ccc(F)cc21`, 61 to 63 °C; as for `COc1c(OC)c(OC(C)=O)c2cc(F)ccc2c1OC(C)=O`, 102 °C.

As for `NC(=S)c1ccc(F)c(Cl)c1`, the melting point lay in the range of 129 to 131 °C. As for `Clc1ccc(C=NNc2ncnc3c2cnn3-c2ccccc2)cc1`, the figure is 280 to 282 °C. Then `CCOc1cc(NC(=O)c2ccccc2)c(OCC)cc1N`, with 98 to 100 °C; and `O=C1CCCN1C1CCCCC1`, with 13 °C. Then `COc1ccc2c(c1)C(=O)N(CCc1ccc(S(=O)(=O)NC(=O)NC3CCCCC3)cc1)C(=O)C2(C)C`, with 181 °C; and `CCc1c(C)n[nH]c1C`, with 40 to 45 °C; and `O=C(O)c1cc2sccc2[nH]1`, with 180 °C. `CCCCCCCCCCCC1=C(O)C(=O)C=C(O)C1=O` had a melting point of 142 °C. Take `O=C(Oc1ccccc1)c1cccnc1`: the melting point amounted to 72 °C. Then `CN(N=O)c1ccc(N=O)cc1`, with 101 °C; and `CCCCCCCCC(=O)NCc1ccc(O)c(OC)c1`, with 57 °C; and `O=C1OC2(c3ccccc31)c1cc(Br)c(O)c(Br)c1Oc1c2cc(Br)c(O)c1Br`, with 295 °C. Then `CCCOC(=O)c1ccccc1O`, with 97 °C; and `CC(C=CC1(O)C(C)=CC(=O)CC1(C)C)=CC(=O)O` (centres undefined), with 160 °C. Then `CC(=O)c1c(-c2ccccc2)noc1C`, with 55 to 58 °C; and `N#CCC(=O)c1ccco1`, with 81 to 83 °C; and `O=C1C(c2ccccc2)C(c2ccccc2)N1c1ccccc1` (centres undefined), with 134 °C.

Turning to `FC(F)(F)c1n[nH]c(/N=C/c2ccc(Cl)cc2)n1`, the melting point is 233 °C. As to `Nc1nc(O)nc2c1cnn2CCO`, the melting point fell in the range of 305 to 310 °C. Regarding `O=C1CCC(NC(=O)OCc2ccccc2)CC1`, the melting point stood at 82 °C.

In turn, `COc1c(C)cc2c(c1C)CC2=O` yielded a melting point of 51 °C. As for `CC(/C=C(\C)c1ccc(-c2ccccc2)cc1)=NNS(=O)(=O)c1ccc(C)cc1`, the figure is 132 to 134 °C. Then `CC(C)C(=O)OCC(C)(C)C(O)C(C)C` (centres undefined), with -50 °C; and `CCOCCCN`, with -70 °C.

As for `Cn1c(S)nnc1-c1cccs1`, the melting point fell in the range of 153 to 156 °C.

In turn, `O=[N+]([O-])c1ccccc1N1CSc2nnc(-c3ccccc3)n2C1` displayed a melting point of more than 300 °C. Take `BrC/C=C/CBr`: the melting point was found to be 53.4 °C. Then `Cc1c(C)c(C)c(C(=O)Cc2ccccc2)c(C)c1C`, with 135 °C. Then `Cc1n[nH]c(C)c1Cc1ccccc1`, with 119 °C. As for `CCOC(=O)c1ccccc1N=C=O`, the melting point came to 29 °C. In turn, `CCc1nc(NC(=O)NS(=O)(=O)c2cccs2)nc(Cl)c1C` yielded a melting point of 187 to 188 °C. Then `CC1=CCC/C1=N\Nc1ccc([N+](=O)[O-])cc1[N+](=O)[O-]`, with 222 °C; and `ClC(Cl)C(Cl)(Cl)C(Cl)(Cl)Cl`, with 29.4 °C; and `CCCCc1ccc(C(N)=O)cc1`, with 127 to 129 °C. Then `CC1=C(C)C(=O)C=CC1=O`, with 55 °C. Then `Oc1cc(C(F)(F)F)ccn1`, with 159 °C; and `CCCCCCCCCCC(O)CC` (centres undefined), with 32 °C; and `COC(=O)c1[nH]c2ccccc2c1C(=O)OC`, with 112 to 115 °C.

As for `Clc1cc(C(Cl)Cl)c(Cl)cc1C(Cl)Cl`, the melting point came to 72 °C.

`O=C(NO)c1ccc(Cl)cc1O` returned a melting point of 195 to 199 °C. Then `c1ccc(Oc2nc(Oc3ccccc3)nc(Oc3ccccc3)n2)cc1`, with 234 °C. The molecule `FC(F)(F)c1cncc(C(F)(F)F)c1` showed a melting point of 37 °C. As for `CC(=O)Oc1ccc(C2(c3ccc(OC(C)=O)cc3)Oc3ccccc3NC2=O)cc1`, the melting point is 190 °C. Molecule `Oc1cc(C(F)(F)F)nc2c(F)cccc12` had a melting point of 113 °C. Then `OC(Cn1ccnc1)c1ccc(Cl)cc1Cl` (centres undefined), with 134 to 138 °C; and `CC(=O)/C(=N\Nc1ccc(Cl)cc1)C(=O)C(F)(F)F`, with 124 °C; and `COc1ccc(C(=O)C2CC2)cc1`, with 42 °C.

For `Clc1ccc2c(N3CCNCC3)ccnc2c1`, the melting point is 113 to 116 °C. With `Clc1cncc(Cl)c1N1CCNCC1`, the melting point is 77 to 80 °C.

Take `Nc1c(C(=O)Oc2ccccc2)sc2sc(C(=O)Oc3ccccc3)c(N)c12`: the melting point was 165 °C. For `O=c1[nH]c2ccccc2n1CCCN1CCN(C(c2ccccc2)c2ccccc2)CC1`, the melting point was found to be 154 °C. As for `O=c1nc2ccccc2nc(C(F)(F)F)c1NNc1cccnc1`, the figure is 157 °C. As for `CC12CCC(C1(C)C)C(CC(Br)=Cc1ccccc1)(C1(CC(Br)=Cc3ccccc3)C(=O)C3(C)CCC1C3(C)C)C2=O` (centres undefined), the figure is 118 °C. `Nc1ccc(N=Nc2ccc([N+](=O)[O-])cc2)cc1` registered a melting point of 215 °C.

As for `COc1ccccc1Oc1ccc(C(F)(F)F)cc1N`, the melting point stood at 28 °C. As for `COC1C(OC(=O)C=CC=CC=CC=CC(=O)O)CCC2(CO2)C1C1(C)OC1CC=C(C)C` (centres undefined), the figure is 194 °C.

With `N#CCN(CC#N)CC#N`, the melting point was 126 °C. In the case of `BrCc1ccc(-c2ccccc2)cc1`, the melting point lay in the range of 86 to 87 °C. As for `O=C(Br)C(=O)Br`, the figure is -19 °C; as for `O=C(Oc1cccc2cccnc12)c1ccccc1`, 119 °C; as for `COC(=O)c1cccc(Cl)c1`, 21 °C. Molecule `O=Cc1ccc2oc(C(=O)c3ccc(Br)cc3)cc2c1` came in with a melting point of 177 to 178 °C. Then `COc1cc(C=O)c([N+](=O)[O-])cc1OC`, with 133 °C; and `CCC1C(C)=NN=C(c2ccc(OC)c(OC)c2)c2cc(OC)c(OC)cc21` (centres undefined), with 156 °C. Then `C=C1C(=O)C23C(OC(C)=O)CC4C(C)(C)CCC(OC(C)=O)C4(C)C2C(OC(C)=O)CC1(O)C3OC(C)=O` (centres undefined), with 278 °C. As for `CS(=O)(=O)CCCN=C=S`, the figure is 47.5 °C. The molecule `Cc1ccc(O)c(C(=O)c2ccccc2)c1` showed a melting point of 83 to 85 °C. Then `CC(C)NC(C)C`, with -61 °C. As for `CC12CCC(O)CC1CC1(OCCO1)C1C2CCC2(C)C1CCC21OCCO1` (centres undefined), the figure is 99 to 103 °C; as for `FCCl`, -133 °C. Then `ClC1CCCCC1`, with -44 °C. The molecule `CC1=C(C=NO)C(=O)C(C(C)C)C=C1` (centres undefined) displayed a melting point of 146 °C. Then `Cn1ncc(C(N)=O)c1N`, with 231 to 232 °C. As for `c1cc2occc2c(N2CCNCC2)n1`, the figure is 58 to 60 °C; as for `O=C(/C(=N/Nc1ccc(Br)cc1)S(=O)(=O)c1ccccc1)c1cccs1`, 158 °C. As for `C=C1C(=O)C23C4CC5C(C)(C)CCC(O)C5(C(OC)O4)C2C(O)CC1C3O` (centres undefined), the figure is 261 °C; as for `COc1ccc(-c2ccc(S(=O)(=O)NCC(=O)O)cc2)cc1`, 186 °C; as for `COC1OC(C(=O)O)C(OC2OC(C(=O)O)C(OC)C(O)C2O)C(O)C1O` (centres undefined), 300 °C.

In the case of `Clc1cc(Cl)c2oc3c(Cl)c(Cl)ccc3c2c1`, the melting point came out at 164 °C.

Consider `FC(F)(F)C(F)(Cl)C(Cl)(Cl)C(F)(F)F` (centres undefined), for which the melting point came out at 4 °C. As for `C=CCNC(=O)OC(C)(C)C`, the figure is 37 °C; as for `C1=C[C@@H](OCc2ccccc2)[C@H](OCc2ccccc2)[C@@H](COCc2ccccc2)O1`, 54 to 57 °C; as for `CNC(=O)ON=C1C(Cl)C2CC(C#N)C1C2` (centres undefined), 144 °C. Then `O=C(O)c1cn(S(=O)(=O)c2ccccc2)c2ccccc12`, with 232 °C; and `CCCCCCc1ccc2ccccc2c1`, with -3 °C.

Molecule `CC(C)(C)C(N)C(=O)O` (racemic) showed a melting point of 300 °C. As for `O=P(OCC(Br)CBr)(OCC(Br)CBr)OCC(Br)CBr` (centres undefined), the figure is 5.5 °C.

With `CCN1C(=O)NC(c2ccccc2)C1=O` (centres undefined), the melting point amounted to 94 °C. Molecule `CCCC1(C)CC(=O)NC1=O` (centres undefined) came in with a melting point of 76 to 78 °C. As for `Cc1ccc(-c2csnn2)cc1`, the figure is 73 to 75 °C. In turn, `COc1cc(Br)cc2cc(C(=O)O)c(=O)oc12` had a melting point of 226 to 228 °C. As for `NC(=O)/C(=C\c1ccc(Cl)cc1Cl)c1nc2ccccc2s1`, the figure is 263 °C.

With `Cc1cc(C)c(CCl)cc1CCl`, the melting point is 97 to 99 °C.
